The test system of one experiment is L. monocytogenes Type I. The experiment in a line: Bioactivity agar plate assay (zone of inhibition). Format: cell-based, Listeria monocytogenes. The note with it: peptide 2.3, 0.23, 0.023 mM, 10 μL spots; 37° C., 24 hours. Here is the method: Bioactivity. LeuA and negative peptide were checked for activity using agar plate inoculated with L. monocytogenes Type I. Briefly, a TSB agar plate was spotted with different concentrations of peptide (2.3, 0.23, and 0.023 mM, dissolved in water) with a spot volume of 10 μL. Then the 6 mL soft agar inoculated with 60 μL L. monocytogenes (overnight culture, undiluted) was plated over the TSB agar. The plate was incubated at 37° C. and zone of inhibition was checked after 24 hours.

In experiment [1] the test system is L. monocytogenes ATCC 43256. The experiment in a line: Detecting L. monocytogenes using AuNC on LeuA-spotted glass surface. Format: binding, Listeria monocytogenes. The settings on record: Leu A 10 μL 0.13 mM, 10^4 cells, AuNC 12 μL; AuNC alone 31860±11608, peptide + AuNC without bacteria 34352±1812. Here is the method: Detecting L. monocytogenes using AuNC on glass surface. An aqueous solution of Leu A (10 μL, 0.13 mM) was spotted on a glass slide (˜4 mm diameter) in triplicate. The peptide spots were allowed to air dry (˜20 min). This was followed by spotting bacteria L. monocytogenes ATCC 43256 (10 μL, 10^4 cells) or no bacteria (10 μL water) on top of the peptide spot. The glass slide was then dipped in MilIQ water for 10 seconds to remove all non-bound bacteria. The slide was allowed to air dry and finally AuNC (12 μL) was deposited on each spot. AuNC (12 μL) alone was also spotted as a control. The mean fluorescence intensity was recorded using Chemidoc imager. The experiment was repeated three times.

The subject of experiment [2] is L. monocytogenes ATCC 19116. The experiment is described as follows: Glass biosensor assay: peptide concentration optimization and limit of detection. It counts as binding, Listeria monocytogenes. Here is the method:
Optimization of peptide concentration. The bio-sensor was optimized by testing different LeuA concentrations. The slide was spotted with 10 μL of varying peptide concentrations (0, 0.013, 0.025, 0.064, or 0.13 mM). The peptide spot was allowed to air dry for 20 min. Next, bacteria (L. monocytogenes ATCC 19116) was spotted at a constant concentration (10 μL, 10^4 cfu). After drying, the slides were dipped in MilIQ water for 10 seconds. Lastly AuNC (12 μl) was spotted to quantify the fluorescence intensity of the spots.
Sensitivity and selectivity of the biosensor. To obtain the limit of detection (LOD), the biosensor assay was performed with varying number of bacteria in 10 μL sample. An overnight culture of L. monocytogenes ATCC 19116 was diluted to obtain samples with 0, 200, 1000, 2000, and 10000 cfu/10 μL. A glass slide was prepared with peptide spots (Leu A, 0.13 mM, 10 μL) as descried above and bacteria (10 μL) were spotted on the peptide spot followed by AuNC labeling and fluorescence recording using Chemidoc imager.

In experiment [3] the test system is L. monocytogenes strains (ATCC 43256, ATCC 19116, and Pat Type 1). The experiment in a line: Selectivity of the biosensor assay, Listeria strains. Format: binding, Listeria monocytogenes. The settings on record: 10^4 cells/10 μL; control sample (water) 12000±2000. Here is the method: (§1) The selectivity of the biosensor assay was tested with three L. monocytogenes strains (ATCC 43256, ATCC 19116, and Pat Type 1), B. cereus ATCC 14579, S. aureus ATCC 29213, S. enterica, and E. coli DHα. Water (no bacteria) was used as a control. Another control used was with a negative peptide (24-mer) spot, and L. monocytogenes 19116 was used. The biosensor assay was performed as described above.

The test system of the next experiment is E. coli DHα. The experiment in a line: Selectivity of the biosensor assay, E. coli. It counts as binding, Escherichia coli. The settings on record: 10^4 cells/10 μL; one value for both Gram-negative bacteria; control 12000±2000. The method, then:
as §1

The test system of experiment [4] is S. enterica Serovar Enteritidis. The experiment is described as follows: Selectivity of the biosensor assay, S. enterica. It counts as binding, Salmonella enterica. The settings on record: 10^4 cells/10 μL; one value for both Gram-negative bacteria; control 12000±2000. The method, then:
as §1

For a further experiment, the system named is B. cereus ATCC 14579. The experiment in a line: Selectivity of the biosensor assay, B. cereus. It counts as binding, Bacillus cereus. The settings on record: 10^4 cells/10 μL; control 12000±2000. Here is the method: as §1
For another experiment, the system named is S. aureus ATCC 29213. The experiment is described as follows: Selectivity of the biosensor assay, S. aureus. Format: binding, Staphylococcus aureus. The settings on record: 10^4 cells/10 μL; control 12000±2000. Here is the method: as §1
Another experiment relates to L. monocytogenes 19116. The experiment is described as follows: Detection of Listeria monocytogenes in spiked milk sample (glass biosensor). It counts as binding. The note with it: whole milk (3.5% fat) diluted with water, 10^3 cells/μL. Here is the method:
Detection of Listeria monocytogenes in spiked milk sample. A spiked milk sample was prepared using milk (3.5% fat, 1 mL) diluted with water (9 mL). L. monocytogenes 19116 was added to the diluted milk to obtain a bacterial concentration of 10^4 cfu/10 μL. Water was used as a control. The biosensor assay was performed on the spiked milk sample as described above.

The test system of experiment [5] is Listeria innocua ATCC 33091. The experiment in a line: Detection of bacteria using AuNC on LeuA-conjugated PVDF membrane. Format: binding. The settings on record: 5000 cfu in 500 μL water; baseline without bacteria 3880. The text has this: Detection of bacteria using AuNC on membrane. A low-fluorescence polyvinylidene difluoride (PVDF) membrane (Thermo Scientific) was cut into 3 small circular pieces (˜0.75 cm radius). The circular membrane was placed on a membrane holder which was connected to a side arm Erlenmeyer flask with vacuum. Each membrane was first washed with copious amount of water by allowing water to filter through the membrane using a gentle vacuum. Membranes 1 and 2 were then conjugated with peptide LeuA by delivering 100 μL peptide solution (0.012 mM). The peptide was allowed to bind the membrane for ˜20 minutes and then excess, unbound peptide was removed by vacuum. Next, the peptide-conjugated membranes were exposed to samples with bacteria (5000 cfu Listeria innocua ATCC 33091 in 500 μL water; membrane 1) or without bacteria (500 μL water; membrane 2). […] Excess AuNC was removed by vacuum and the membrane was allowed to dry for ˜15-20 mins before fluorescence imaging. The fluorescence of each membrane was read using BioRad Imager (FIG. 12). […] The fluorescence for the peptide-conjugated membrane alone (no bacteria; membrane 2) could be due to the binding of AuNC to the peptide. This represents baseline fluorescence (3880) and any increase in fluorescence from baseline represents the presence of bacteria as shown in FIG. 12. […]

For experiment [6], the system named is L. monocytogenes ATCC 19116. The experiment is described as follows: LeuA-conjugated PVDF membrane assay: sample volumes and limit of detection. It counts as binding, Listeria monocytogenes. Here is the method:
Detection of L. monocytogenes from different sample volumes. Six circular membranes conjugated with peptide LeuA were prepared as described above. Peptide-conjugated membranes were exposed to three samples of different volumes (500 μL, 1 mL, and 5 mL) each containing same number of L. monocytogenes ATCC 19116 (2000 cfu). Membranes were also exposed to samples (water) with no bacteria (500 μL, 1 mL, and 5 mL) to serve as controls. After passing the samples through the membranes, all membranes were reacted with AuNC (500 μL, 100 μL stock diluted to 500 μL with water) to label the bound bacteria. Excess AuNC from each membrane was removed by vacuum and the membrane was allowed to dry for ˜15-20 mins before fluorescence imaging. The fluorescence of each membrane was read using a BioRad Imager. […] The increase in fluorescence was calculated using the following equation. [formula] Estimation of the limit of detection for L. monocytogenes. Four circular membranes conjugated with peptide LeuA were prepared as described above. The membranes were exposed to samples (500 μL) containing different numbers of L. monocytogenes ATCC 19116 (0, 200, 2000, or 20000 CFU). The rest of the assay was performed as described above.

The subject of another experiment is L. monocytogenes species. The settings on record: against L. monocytogenes species; cited from earlier work.
A further experiment relates to S. aureus ATCC 13565. The note with it: observed previously; cited from earlier work.

Positions of bridges follow the written chain, without caps; N, C: chain ends. No end group written: not given here.

“Leucocin A (KYYGNGVHCTKSGCSVNWGEAFSAGVHRLANGGNGFW-OH; disulfide 9-14 (inferred)) [LeuA]”: the “activity in bioactivity plate assay (zone of inhibition)” value with L. monocytogenes Type I is “active”. Moreover, the “MFI of AuNC-labeled bacteria bound to peptide” value in experiment [1] was 62390±5975. Further, the “fluorescence of bound bacteria” value in [2] (2000 cfu bacteria per spot) came out at 31473±2932; in experiment [2] (10000 cfu bacteria per spot), 30842±4696. In addition, in experiment [2] (peptide concentration 0.13 mM, 10 μL, bacteria 10^4 cfu/10 μL), the “fluorescence of bound bacteria (highest)” value came to 21275±2177. Besides, the “fluorescence of AuNC-labeled bound bacteria” value in [3] was 28000-33000; in the experiment with E. coli DHα, 12000±800; in experiment [4] it was 12000±800; with B. cereus ATCC 14579, 13000±1600; with S. aureus ATCC 29213, 18000±2100. Moreover, the “fluorescence of spiked milk sample compared to the milk alone” value in the experiment with L. monocytogenes 19116 is “significantly higher fluorescence”. In experiment [5], the fluorescence of membrane worked out at 7776. The entries for the “percent increase in fluorescence” value in [6] (200 cfu in 500 μL), in [6] (2000 cfu in 500 μL) and in experiment [6] (20000 cfu in 500 μL) were 11.7%, 15.9% and 26.1%, respectively. Besides, the “percent (%) increase in fluorescence” value in experiment [6] (2000 cfu in 500 μL, 1 mL and 5 mL) is 15-20%. The “minimum inhibitory concentration (MIC)” value in the experiment with L. monocytogenes species is on record as “low nanomolar range”. The “binding of bacteria to peptide” value in the experiment with S. aureus ATCC 13565 is listed as “Low binding”.

Consider “negative control (20-mer) peptide: short sequence (20-mer; SEQ ID NO:2) derived from LeuA known not to bind L. monocytogenes (NGVHATKSGASVNWGEAFSA; Control Leucocin A fragment) [reference compound]”, for which the “activity in bioactivity plate assay (zone of inhibition)” value in the experiment on L. monocytogenes Type I was “inactive”. Also, the “fluorescence of AuNC-labeled bound bacteria” value in experiment [3] is on record as 12164±2937.
